Common to all, as to format: cell-based
One experiment concerns the target T1, TLR1/2 (Mus musculus, UniProt Q9EPQ1+Q9QUN7).
T1 construct: production of NO in RAW 264.7 macrophage cells; endogenous in cells; host or cells: RAW 264.7
Briefly: In vitro TLR1/2 inhibition assay (nitric oxide, Pam3CSK4-activated RAW 264.7 macrophages). The note with it: for TLR1/2 inhibitory activity (in words, SAR and specificity): RAW 264.7 NO assay, Pam3CSK4; for IC50: RAW 264.7 cells, Pam3CSK4 200 ng/mL, nitric oxide readout, read-out: IC50, inhibition of Pam3CSK4-induced TLR1/2 activation (NO assay). How it is done:
To identify novel TLR1/2 complex inhibitors, a cell-based assay was employed to screen the NCI-2 diversity small-molecule library. This 1,363 compound library was chosen from the larger NCI library, which has more than 140,000 compounds, on the basis of availability, purity, and other pharmacological features, such as relative rigidity, number of rotatable bonds and chiral centers, the absence of obvious leaving groups and weakly bounded heteroatoms, etc. Screening was performed in a 96-well plate format using a previously established high-throughput nitric oxide (NO) assay. See e.g. Cheng et al., Small molecule inhibitors of the TLR3/dsRNA complex, J. Am. Chem. Soc. (2011), 133:3764-67, which is herein incorporated by reference in its entirety. Briefly, synthetic triacylated lipoprotein Pam3CSK4 was employed to selectively activate TLR1/2 signaling, resulting in the expression of inducible nitric oxide synthase (iNOS) and the production of NO in RAW 264.7 macrophage cells. NO levels were monitored as an indicator of Pam3CSK4-induced TLR1/2 activation to evaluate the compound's inhibitory activity.
(§1) RAW 264.7 (Mouse leukaemic monocyte macrophage cell line) cells were grown in RPMI 1640 medium, supplemented with 10% FBS, penicillin (100 U/mL) and streptomycin ([…]). RAW cells were then planted in 96-well plates at 80,000 cells per well and grown for 24 h in the media descried previously at 37° C. in a 5% CO2 humidified incubator. After 24 h, non-adherent cells and media were removed and replaced with fresh unsupplemented RPMI 1640 medium. The adherent macrophages were treated with Pam3CSK4 (CAS No. 112208-00-1; a synthetic triacylated lipopeptide (LP) that mimics the acylated amino terminus of bacterial LPs) (200 ng/mL) (Invivogen, USA), an agonist of TLR1/2, and then added different concentrates of potential inhibitor. Two rows were only treated with Pam3CSK4 as control. Plates were then incubated for an additional 24 h. Following incubation 100 μL of media was removed and added to flat black 96-well microfluor plates (Thermo Scientific, MA, USA). To each well, 10 μL of 2,3-diaminonaphthalene (0.05 mg/mL in 0.62 M aqueous HCl solution) was added and incubated for 15 min in the dark. The reaction was quenched by addition of 5 μL of a 3 M aqueous NaOH solution and the plate was read on Beckman Coulter DTX880 reader (Beckman Coulter, Calif., USA) with excitation at 365 nm and emission at 450 nm. The nitrite (a stable metabolite of nitric oxide) concentration was determined from a nitrite standard curve. The inhibition rate (%) of NO release was determined using the following formula: Inhibition (%)=[Pam3CSK4(OD450) […]]/[Pam3CSK4 (OD450)−Control (OD450)]×100. The IC50 values for both inhibition and cytotoxicity were determined graphically using software Origin v7.5.

In a further experiment the target is T2, TLR2/6 (Mus musculus, UniProt Q9EPW9+Q9QUN7).
T2 construct: RAW 264.7 Cells Nitric Oxide TLR Selectivity Assay; endogenous in cells; host or cells: RAW 264.7
Briefly: RAW 264.7 nitric oxide TLR selectivity assay (FSL-1). The note with it: 10 ng/mL FSL-1. How it is done: as §1
This assay was run in a similar manor as the “In Vitro TLR1/2 Inhibition Assay”. High molecule weight Poly (I:C), LPS (lipopolysaccharide), FSL-1 (Synthetic diacylated lipoprotein—TLR2/TLR6 ligand commercially available from Invivogen, USA), and R848 ([…]) were used to selectively activate TLR3, TLR4, TLR2/6 and TLR7 in place of Pam3CSK4, respectively.

The next experiment deals with T3, TLR3 (Mus musculus, UniProt Q99MB1).
T3 construct: RAW 264.7 Cells Nitric Oxide TLR Selectivity Assay; endogenous in cells; host or cells: RAW 264.7
T3 sequence (Q99MB1 26-905): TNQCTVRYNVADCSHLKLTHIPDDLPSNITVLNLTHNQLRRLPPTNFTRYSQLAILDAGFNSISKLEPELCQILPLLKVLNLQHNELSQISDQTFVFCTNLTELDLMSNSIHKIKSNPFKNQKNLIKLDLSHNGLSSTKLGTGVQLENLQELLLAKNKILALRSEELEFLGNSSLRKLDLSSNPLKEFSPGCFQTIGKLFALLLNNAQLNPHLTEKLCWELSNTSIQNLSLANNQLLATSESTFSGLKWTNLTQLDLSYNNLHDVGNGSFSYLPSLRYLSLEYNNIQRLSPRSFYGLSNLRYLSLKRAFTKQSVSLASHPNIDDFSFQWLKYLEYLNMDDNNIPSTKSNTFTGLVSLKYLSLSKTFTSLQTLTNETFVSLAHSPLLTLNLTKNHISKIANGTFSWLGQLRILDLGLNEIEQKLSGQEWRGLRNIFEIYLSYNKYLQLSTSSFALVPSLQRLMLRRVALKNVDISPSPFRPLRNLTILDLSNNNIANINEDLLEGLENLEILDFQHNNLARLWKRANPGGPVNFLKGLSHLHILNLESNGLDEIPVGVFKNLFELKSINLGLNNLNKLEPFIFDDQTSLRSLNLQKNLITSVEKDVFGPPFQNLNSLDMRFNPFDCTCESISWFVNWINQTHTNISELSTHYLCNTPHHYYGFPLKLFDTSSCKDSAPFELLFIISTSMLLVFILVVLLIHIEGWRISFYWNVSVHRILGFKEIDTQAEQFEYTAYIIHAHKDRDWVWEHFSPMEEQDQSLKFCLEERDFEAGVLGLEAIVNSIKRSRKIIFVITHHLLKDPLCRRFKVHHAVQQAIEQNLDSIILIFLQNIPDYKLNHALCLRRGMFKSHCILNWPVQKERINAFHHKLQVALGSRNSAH
Briefly: RAW 264.7 nitric oxide TLR selectivity assay (Poly (I:C)). The note with it: 15 μg/mL Poly (I:C). How it is done:
as §1, with “Plates were then incubated for an additional 24 h. Following incubation 100 μL of media was removed and added to flat black 96-well microfluor plates (Thermo Scientific, MA, USA). To each well, 10 μL of 2,3-diaminonaphthalene (0.05 mg/mL in 0.62 M aqueous HCl solution) was added and incubated for 15 min in the dark.” left out, “v7.5. […]” for “v7.5.”

T1 sequence (Q9EPQ1 26-795): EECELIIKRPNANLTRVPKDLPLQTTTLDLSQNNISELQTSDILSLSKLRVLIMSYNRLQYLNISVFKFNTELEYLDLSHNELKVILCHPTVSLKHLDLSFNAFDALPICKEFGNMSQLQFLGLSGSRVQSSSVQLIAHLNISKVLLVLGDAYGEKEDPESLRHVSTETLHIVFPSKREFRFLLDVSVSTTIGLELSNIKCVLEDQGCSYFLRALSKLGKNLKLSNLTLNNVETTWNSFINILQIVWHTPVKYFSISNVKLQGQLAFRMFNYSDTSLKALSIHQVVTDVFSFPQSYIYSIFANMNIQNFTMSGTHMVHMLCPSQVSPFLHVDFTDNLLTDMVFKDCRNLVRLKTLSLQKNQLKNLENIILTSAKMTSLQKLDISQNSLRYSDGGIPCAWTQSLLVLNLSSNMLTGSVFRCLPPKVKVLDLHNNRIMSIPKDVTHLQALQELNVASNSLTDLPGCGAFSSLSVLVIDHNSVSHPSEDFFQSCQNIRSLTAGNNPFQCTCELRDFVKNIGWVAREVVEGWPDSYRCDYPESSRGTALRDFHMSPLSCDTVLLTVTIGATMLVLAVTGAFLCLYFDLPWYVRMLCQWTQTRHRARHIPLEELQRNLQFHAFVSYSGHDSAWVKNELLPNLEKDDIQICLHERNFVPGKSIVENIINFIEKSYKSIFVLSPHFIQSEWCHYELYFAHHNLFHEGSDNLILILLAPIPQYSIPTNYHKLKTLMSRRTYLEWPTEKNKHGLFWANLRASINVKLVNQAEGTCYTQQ
T1 sequence (Q9QUN7 25-784): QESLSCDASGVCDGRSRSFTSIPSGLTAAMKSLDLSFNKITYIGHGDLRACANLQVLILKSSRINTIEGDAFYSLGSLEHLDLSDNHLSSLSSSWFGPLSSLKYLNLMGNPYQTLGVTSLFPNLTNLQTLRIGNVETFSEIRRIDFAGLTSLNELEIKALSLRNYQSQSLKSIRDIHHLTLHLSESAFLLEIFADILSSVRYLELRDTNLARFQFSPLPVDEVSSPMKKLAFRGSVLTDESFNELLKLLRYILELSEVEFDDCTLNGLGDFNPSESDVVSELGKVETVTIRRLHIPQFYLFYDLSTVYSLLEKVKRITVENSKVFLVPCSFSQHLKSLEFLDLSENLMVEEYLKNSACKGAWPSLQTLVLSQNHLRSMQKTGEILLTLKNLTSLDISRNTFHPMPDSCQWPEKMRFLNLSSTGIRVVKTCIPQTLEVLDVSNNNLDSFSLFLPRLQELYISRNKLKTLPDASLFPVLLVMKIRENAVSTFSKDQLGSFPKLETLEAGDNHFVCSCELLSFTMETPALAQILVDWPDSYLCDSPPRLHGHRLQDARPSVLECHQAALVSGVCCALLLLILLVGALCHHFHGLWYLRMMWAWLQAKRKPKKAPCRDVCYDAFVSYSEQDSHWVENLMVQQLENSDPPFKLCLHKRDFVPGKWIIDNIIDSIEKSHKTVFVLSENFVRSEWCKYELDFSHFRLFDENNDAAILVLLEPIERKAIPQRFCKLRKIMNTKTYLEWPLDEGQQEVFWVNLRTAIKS
T2 sequence (Q9QUN7 25-784): as above
T2 sequence (Q9EPW9 28-795): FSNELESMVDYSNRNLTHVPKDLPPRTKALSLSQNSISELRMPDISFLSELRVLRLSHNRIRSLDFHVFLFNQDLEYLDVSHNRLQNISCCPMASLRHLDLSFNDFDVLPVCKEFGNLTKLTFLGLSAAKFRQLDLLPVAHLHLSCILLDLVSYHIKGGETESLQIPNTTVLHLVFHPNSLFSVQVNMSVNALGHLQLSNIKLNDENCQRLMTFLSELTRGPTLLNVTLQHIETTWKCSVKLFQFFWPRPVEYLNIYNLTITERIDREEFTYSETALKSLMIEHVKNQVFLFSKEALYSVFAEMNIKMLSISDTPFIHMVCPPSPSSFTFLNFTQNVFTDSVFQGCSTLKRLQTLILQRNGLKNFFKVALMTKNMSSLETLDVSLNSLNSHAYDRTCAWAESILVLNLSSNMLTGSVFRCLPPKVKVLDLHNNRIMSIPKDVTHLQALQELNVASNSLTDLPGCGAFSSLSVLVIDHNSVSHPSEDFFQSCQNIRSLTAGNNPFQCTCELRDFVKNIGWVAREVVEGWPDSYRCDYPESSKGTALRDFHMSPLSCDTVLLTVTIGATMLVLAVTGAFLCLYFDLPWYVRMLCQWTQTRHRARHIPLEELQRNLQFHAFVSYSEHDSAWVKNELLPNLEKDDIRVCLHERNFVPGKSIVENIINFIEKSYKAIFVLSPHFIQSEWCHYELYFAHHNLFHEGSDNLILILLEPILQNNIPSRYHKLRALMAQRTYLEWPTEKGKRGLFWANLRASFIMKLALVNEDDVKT

Turning to `O=c1c(O)cccc2cc(O)c(O)c(O)c12` [NCI35676, purpurogallin, reference compound], at TLR1/2, the “TLR1/2 inhibitory activity (in words, SAR and specificity)” value was “specifically inhibited TLR1/2 signaling”; the IC50 amounted to 2.45 ± 0.25 µM. The “inhibition of TLR2/6 signaling” value against TLR2/6 (3 μM compound) was “no other homologous TLRs”. Further, on TLR3 (3 μM compound), the “inhibition of TLR3 signaling” value is listed as “no other homologous TLRs”.
For `CCCCCCOC(=O)c1cc(O)c(=O)c2c(O)c(O)c(OC)cc2c1` [compound 17, Hexyl 3,4,6-trihydroxy-2-methoxy-5-oxo-5H-benzo[7]annulene-8-carboxylate], the “TLR1/2 inhibitory activity (in words, SAR and specificity)” value on TLR1/2 was “highest inhibitory activity”; on TLR1/2 (listed as Compound 17), “inhibit TLR1/2 signaling”. Further, at TLR1/2, the IC50 is 0.58 ± 0.09 µM. The “inhibition of TLR2/6 signaling” value against TLR2/6 (0.5 μM compound) is “no significant inhibition”; against TLR2/6 (0.5 μM compound, listed as Compound 17) it was “without affecting other TLRs”. In addition, the “inhibition of TLR3 signaling” value at TLR3 (0.5 μM compound) is reported as “without affecting other TLRs”.

For the origin of these results see patent publication US9517993B2, “Antagonists of the toll-like receptor 1/2 complex” (THE REGENTS OF THE UNIVERSITY OF COLORADO, a body corporate, priority 2012, dated 2016).
